The results in this text go back to paper PMC6826779, “Bis-allylic Deuterated DHA Alleviates Oxidative Stress in Retinal Epithelial Cells” (Antioxidants, 2019).

Data set [1] deals with ARPE-19 cells. In words: cells. It counts as cell-based. Conditions: for concentration range providing improvement in cell viability / concentration at which high toxicity was observed (microscopy, loss of cell adherence): 24 h; for concentration range providing improvement in cell viability: compared to untreated cells (CTL); for concentration at which high toxicity was observed (microscopy, loss of cell adherence): ARPE-19, serum starvation medium (1% FBSM); for cell mortality: ARPE-19, serum starvation, 50 µM; for IC50: Homo sapiens, MTT, read-out: IC50 (concentration leading to 50% of cell viability). The protocol: ARPE-19 cells were obtained from ATCC, and maintained in Dulbecco’s Modified Eagle’s Medium (DMEM)/Ham F12 (GIBCO) containing 10% (v/v) fetal bovine serum (FBS) and 1% (v/v) penicillin/streptomycin under a humidified (95%)/CO2 (5%) atmosphere at 37 °C. For splitting and experiments, cells were dissociated with 0.25% trypsin-EDTA, re-suspended in the culture medium and then plated at 1–3 × 10^5 cells/mL. Cells were cultured and used up to a maximum of 10 passages.
Cell viability was determined by the MTT colorimetric assay. Cells were incubated for 2 h with MTT reagent (0.5 mg/mL). The absorbance at 570 nm and 655 nm of individual wells was measured using a microplate reader (BioRad 550). The percentage of viable cells was calculated as [(OD570 sample – OD655 sample)/(OD570 control – OD655 control)] × 100%.
ARPE-19 cells were plated into 96-well plates (3 × 10^4 cells/well) and cultured for 24 h to reach confluence before DHA treatment. The cells were treated in medium with 1% FBS (1% FBSM), or with H2O2 prepared in medium with FBS (1%, v/v) to a final concentration of 600 μM. Cells were then treated with DHA, D2-DHA and D4-DHA, at different concentrations (0–80 μm) for 24 h. Control cells were incubated with DMSO (0.2%). After 4 h, cell viability was determined in triplicate using the MTT colorimetric assay. Results were expressed in percentage of viable cells normalized with control conditions in the absence of PUFA and H2O2 stress.
Sigmoidal doses-responses linked to the toxicity were obtained using GraphPad prism software, allowing to calculate IC50 values described as the concentration leading to 50% of cell viability.

The test system of data set [2] is ARPE-19 cells. Nature of the data set: Lipid peroxidation status with C11-Bodipy581/591 probe (FACS) under oxidative conditions. The class given is cell-based. The following applies: ARPE-19, 50 µM for 24 h. The protocol: ARPE-19 cells were plated into 2 cm^2 wells (2 × 10^5 cells/well) and cultured for 24 h to reach confluence before PUFA or lipophenol treatment. The cell cultures were treated with 1% FBSM containing tested compounds (deuterated DHAs or deuterated lipophenols) at 50 μM for 24 h and then rinsed with media before the incubation of 5 µM C11-Bodipy^581/591 for 30 min. Then, the cells were rinsed and treated with the different stressors, corresponding to different protocols. For chemical stress the cells were incubated with 400 µM of H2O2 during 24 h followed by FACS analysis. For photobleaching stress, the cells were exposed to a white LED lamp with an intensity of 5000 lux at room temperature during 1 h followed by the FACS analysis.
FACS was performed with the BD Accuri C6 Flow Cytometer and BD Accuri C6 Software for data acquisition (BD Biosciences). This flow cytometer is equipped with an excitation laser at 488 nm, and a fluorescence detector FL1 533/30 nm. Data were collected to 10,000 events for each sample using a flow rate of 35 µL/min. Parameters obtained for data analysis included: cell size from the forward scatter (FSC), granularity from the side scatter (SSC) and the green fluorescence of the stained cells with C11-Bodipy^581/591.
First the SSC-A versus FSC-A dot-plot was used to gate the cellular population and remove the cellular debris. Then the SSC-A versus SSC-H dot-plot was used to remove cell doublets in the previous gate to give a final gate. The cellular population in the last gate designed was plotted on count versus log green fluorescence to give the fluorescence mean intensity of FL1. The mean FL1 values were normalized to the cells only stained with C11-Bodipy^581/591.

The target of data set [3] is T1, 15-sLOX (Glycine max, UniProt P08170).
T1 sequence (P08170 1-839): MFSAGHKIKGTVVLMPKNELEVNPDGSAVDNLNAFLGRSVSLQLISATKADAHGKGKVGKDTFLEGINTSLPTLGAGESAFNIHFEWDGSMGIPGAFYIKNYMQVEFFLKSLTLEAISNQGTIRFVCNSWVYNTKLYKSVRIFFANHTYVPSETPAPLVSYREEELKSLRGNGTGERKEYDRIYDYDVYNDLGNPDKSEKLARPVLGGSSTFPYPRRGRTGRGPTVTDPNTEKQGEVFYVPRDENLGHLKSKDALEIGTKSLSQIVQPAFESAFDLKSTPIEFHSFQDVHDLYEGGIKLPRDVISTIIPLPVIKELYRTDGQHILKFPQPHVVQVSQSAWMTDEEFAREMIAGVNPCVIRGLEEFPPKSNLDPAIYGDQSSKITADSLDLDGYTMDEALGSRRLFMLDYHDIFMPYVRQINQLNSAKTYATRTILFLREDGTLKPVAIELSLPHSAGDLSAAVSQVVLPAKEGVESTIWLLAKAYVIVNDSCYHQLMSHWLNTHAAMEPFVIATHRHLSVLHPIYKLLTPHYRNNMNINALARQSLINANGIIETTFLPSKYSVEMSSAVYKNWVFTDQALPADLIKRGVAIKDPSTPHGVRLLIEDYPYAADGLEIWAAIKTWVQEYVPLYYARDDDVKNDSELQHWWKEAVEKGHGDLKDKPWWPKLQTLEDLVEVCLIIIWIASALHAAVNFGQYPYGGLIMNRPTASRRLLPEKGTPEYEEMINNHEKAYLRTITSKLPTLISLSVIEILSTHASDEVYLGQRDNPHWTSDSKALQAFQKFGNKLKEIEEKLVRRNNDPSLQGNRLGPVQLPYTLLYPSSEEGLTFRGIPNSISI
In words: Kinetics parameters of 15s-LOX (UV 270 nm, Michaelis-Menten). The following applies: monitored at 270 nm. The class given is biochemical, Glycine max (soybean). On the procedure: The activity of 15-sLOX was monitored on a Beckman Coulter DU730 Life Sciences UV-visible spectrometer at a wavelength of 270 nm monitoring the conjugated triene structure in the dihydroxylation products. For the measurements a reaction mixture of DHA or deuterated DHA (0.02 mM; 0.04 mM; 0.1 mM and 0.2 mM) was prepared in 750 µL sodium borate buffer (50 mM, pH 9) by ultrasonification for 10 s. The reaction was subsequently initiated by the addition of 10 µL 15-sLOX (4 mg/mL) to make a total volume of 760 µL in a Hellma CEL2056 quartz cuvette with 1 cm path length (20 °C). The initial reaction rates (V(0)), derived from the recorded UV-absorbance using the law of Lambert-Beer (molar extinction coefficient = 40,000), were plotted against the respective DHA concentrations and fitted to Michaelis-Menten kinetics in GraphPad Prism 7.0. All V(0) values were determined in triplicate and the average of three independent experiments was plotted against the substrate concentrations to yield Michaelis-Menten kinetics.

Where [4] appears, read: ARPE-19, 24 h incubation, H2O2 (600 µM) 4 h.
[5] abbreviates: ARPE-19, serum starvation (1% FBSM), 24 h incubation.
Setting [6] is: serum starvation (1% FBSM) 24 h.
The mark [7] stands for this setting: serum starvation (1% FBSM) 48 h.

The structures appear in SMILES notation. Read-outs that look alike come from different tables or passages of the source.

Turning to `[2H]C([2H])(/C=C\C/C=C\C/C=C\C/C=C\C/C=C\CC)/C=C\CCC(=O)O` [D2-DHA, (6,6-D2)-DHA], the “concentration range providing improvement in cell viability” value in data set [1] (ARPE-19, 1% FBSM) lay within 0 to 65 µM. Also, in data set [1], the “concentration at which high toxicity was observed (microscopy, loss of cell adherence)” value was in the range of 65 to 70 µM and the cell mortality entry was “did not induced cell mortality”. The IC50 in data set [1] (setting [4]) is 67 ± 1.89 µM. Also, the IC50 in data set [1] (setting [5]) was found to be 69.5 ± 1.46 µM. Further, the “lipid peroxidation status (C11-BODIPY fluorescence)” value (“lipid peroxidation status” for short) in data set [2] (setting [6]) was “decreased lipid peroxidation status with the same efficiency, reaching oxidation levels of untreated cells”. Further, the “15s-LOX activity for the double hydroxylation product” value (from here on “15s-LOX activity”) in data set [3] was “no substantial differences”.
In data set [1] (ARPE-19, 1% FBSM, 70 µM), `[2H]C([2H])(C=CCC=CCC=CCC=CCC)C=CC([2H])([2H])C=CCCC(=O)O` [D4-DHA, (6,6,9,9-D4)-DHA] came in with a cell survival of 125%. The “concentration range providing improvement in cell viability” value in data set [1] (ARPE-19, 1% FBSM) lay within 0 to 70 µM. Further, in data set [1], the “concentration at which high toxicity was observed (microscopy, loss of cell adherence)” value lay in the range of 70 to 75 µM. In addition, in data set [1], the cell mortality result is “did not induced cell mortality”. Also, the IC50 came out at 76.2 ± 2.26 µM in data set [1] (setting [4]) and 75.6 ± 1.05 µM in data set [1] (setting [5]). Besides, the “lipid peroxidation status” value in data set [2] (setting [6]) was “decreased lipid peroxidation status with the same efficiency, reaching oxidation levels of untreated cells”; in data set [2] (setting [7]), “reach radical levels close to untreated cells”; in data set [2] (then H2O2 400 µM 24 h) it was “more effective than D2-DHA”. The “15s-LOX activity” value in data set [3] is recorded as “no substantial differences”.
`CC/C=C\C/C=C\C/C=C\C/C=C\C/C=C\C/C=C\CCC(=O)O` [Natural DHA, docosahexaenoic acid, reference compound]: the “concentration range providing improvement in cell viability” value in data set [1] (ARPE-19, 1% FBSM) fell in the range of 0 to 60 µM. Moreover, the “concentration at which high toxicity was observed (microscopy, loss of cell adherence)” value in data set [1] lay within 60 to 65 µM. For the same compound, the cell mortality result in data set [1] is on record as “did not induced cell mortality”. The IC50 in data set [1] (setting [4]) amounted to 65.5 ± 1.87 µM; in data set [1] (setting [5]), 65.2 ± 1.03 µM. Further, the “lipid peroxidation status” value in data set [2] (setting [7]) was “increase in lipid peroxidation status compared to untreated cells”; in data set [2] (then H2O2 400 µM 24 h), “increase of oxidation”; in data set [2] (then photobleaching (white light, 5000 lux, 1 h)), “increase in lipid peroxidation under photobleaching-stress”. Besides, the “15s-LOX activity” value in data set [3] is “no substantial differences”.
